Laboratory results published in patent publication US10172830B2, “Pyrazolone compounds having human neutrophil elastase inhibitory properties” (CHIESI FARMACEUTICI S.P.A., priority 2016, dated 2019).

Each molecule was assayed against T1, human neutrophil elastase (HNE) (Homo sapiens, UniProt P08246) (assay: HNE enzyme assay (human neutrophil elastase enzyme activity assay)). Conditions: human leukocyte elastase 0.00072 U/mL; substrate MeOSuc-Ala-Ala-Pro-Val-AMC 100 μM; 25° C. for 30 minutes; at least two separate experiments; read-out: HNE inhibition (HNE enzyme inhibition, IC50 values).
T1 construct: purchased Sigma E8140
T1 sequence (P08246 30-247 limits assumed): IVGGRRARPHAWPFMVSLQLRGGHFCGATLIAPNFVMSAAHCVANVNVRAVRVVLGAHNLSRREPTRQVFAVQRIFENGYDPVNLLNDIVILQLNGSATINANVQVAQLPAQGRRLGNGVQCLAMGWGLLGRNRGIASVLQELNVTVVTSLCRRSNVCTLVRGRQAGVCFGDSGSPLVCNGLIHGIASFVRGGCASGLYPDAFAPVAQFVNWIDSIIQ
Assay type: biochemical
Description: Compounds of the present invention were tested for potency in a human neutrophil elastase (HNE) enzyme activity assay.
Assays were performed in 96-well plates in a total assay volume of 100 μL. The final concentration of elastase enzyme (human leukocyte elastase, Sigma E8140) was 0.00072 U/mL. The peptide substrate (MeOSuc-Ala-Ala-Pro-Val-AMC, Calbiochem #324740) was used at a final concentration of 100 μM. The final concentration of DMSO was 1% in the assay buffer (0.05M Tris.HCl, 0.1M NaCl, 0.1M CaCl2, 0.0005% brij-35, pH 7.5). The enzymatic reaction was started by addition of the enzyme and incubated at 25° C. for 30 minutes. After incubation, the reaction was stopped by addition of soybean trypsin inhibitor (Sigma T9003) at a final concentration of 50 μg/well. Fluorescence was measured using a Molecular Devices fluorescence plate reader using 380 nm excitation and 460 nm emission wavelengths.
A dose response to each compound was performed and the effect of compound in each experiment was expressed as a percentage inhibition of the control enzyme fluorescence. Dose response curves were plotted and compound potency (IC50) was determined. Compounds were tested in at least two separate experiments.

Row | Structure (SMILES) | IC50 [nM]
1 | Cn1c(-c2ccnn2-c2ccc(C#N)cc2)c(C(=O)NC2CCN(C(=O)C[N+](C)(C)Cc3ccccc3)CC2)c(=O)n1-c1cccc(C(F)(F)F)c1 [Example 43, Benzyl-[2-(4-{[2′-(4-cyano-phenyl)-2-methyl-5-oxo-1-(3-trifluoromethyl-phenyl)-2,5-dihydro-1H,2′H-[3,3′]bipyrazolyl-4-carbonyl]-amino}-piperidin-1-yl)-2-oxo-ethyl]-dimethyl-ammonium bromide] | < 1
2 | C[C@H](NC(=O)c1c(-c2ccnn2-c2ccc(C#N)cc2)n(C)n(-c2cccc(C(F)(F)F)c2)c1=O)C(=O)N(C)CC[N+](C)(C)C [Example 44, {2-[((S)-2-{[2′-(4-Cyano-phenyl)-2-methyl-5-oxo-1-(3-trifluoromethyl-phenyl)-2,5-dihydro-1H,2′H-[3,3′]bipyrazolyl-4-carbonyl]-amino}-propionyl)-methyl-amino]-ethyl}-trimethyl-ammonium benzene sulphonate] | < 1
3 | Cn1c(-c2ccnn2-c2ccc(C#N)cc2)c(C(=O)N[C@H]2CC[C@H](NC(=O)C[N+](C)(C)C)CC2)c(=O)n1-c1cccc(C(F)(F)F)c1 [Example 45, [(Trans-4-{[2′-(4-cyano-phenyl)-2-methyl-5-oxo-1-(3-trifluoromethyl-phenyl)-2,5-dihydro-1H,2′H-[3,3′]bipyrazolyl-4-carbonyl]-amino}-cyclohexylcarbamoyl)-methyl]-trimethyl-ammonium benzene sulphonate] | < 1
4 | Cc1cc(C[N+](C)(C)C[C@H]2CC[C@H](NC(=O)c3c(-c4ccnn4-c4ccc(C#N)cc4)n(C)n(-c4cccc(C(F)(F)F)c4)c3=O)CC2)n(C)n1 [Example 46, (Trans-4-{[2′-(4-cyano-phenyl)-2-methyl-5-oxo-1-(3-trifluoromethyl-phenyl)-2,5-dihydro-1H,2′H-[3,3′]bipyrazolyl-4-carbonyl]-amino}-cyclohexylmethyl)-(2,5-dimethyl-2H-pyrazol-3-ylmethyl)-dimethyl-ammonium bromide] | < 1
5 | Cc1cc(C[N+](C)(C)C[C@H]2CC[C@H](NC(=O)c3c(-c4ccnn4-c4ccc(C#N)cc4)n(C)n(-c4cccc(C(F)(F)F)c4)c3=O)CC2)no1 [Example 47, (Trans-4-{[2′-(4-cyano-phenyl)-2-methyl-5-oxo-1-(3-trifluoromethyl-phenyl)-2,5-dihydro-1H,2′H-[3,3′]bipyrazolyl-4-carbonyl]-amino}-cyclohexylmethyl)-dimethyl-(5-methyl-isoxazol-3-ylmethyl)-ammonium chloride] | < 1
6 | Cn1c(-c2ccnn2-c2ccc(C#N)cc2)c(C(=O)NC(C)(C)c2ncc(C[N+](C)(C)C)o2)c(=O)n1-c1cccc(C(F)(F)F)c1 [Example 48, [2-(1-{[2′-(4-Cyano-phenyl)-2-methyl-5-oxo-1-(3-trifluoromethyl-phenyl)-2,5-dihydro-1H,2′H-[3,3′]bipyrazolyl-4-carbonyl]-amino}-1-methyl-ethyl)-oxazol-5-ylmethyl]-trimethyl-ammonium benzene sulphonate] | < 1
7 | Cc1cc(C[N+]2(C)CCN(C(=O)[C@H](C)NC(=O)c3c(-c4ccnn4-c4ccc(C#N)cc4)n(C)n(-c4cccc(C(F)(F)F)c4)c3=O)CC2)no1 [Example 49, 4-((S)-2-{[2′-(4-Cyano-phenyl)-2-methyl-5-oxo-1-(3-trifluoromethyl-phenyl)-2,5-dihydro-1H,2′H-[3,3′]bipyrazolyl-4-carbonyl]-amino}-propionyl)-1-methyl-1-(5-methyl-isoxazol-3-ylmethyl)-piperazin-1-ium chloride] | < 1
8 | Cc1cc(C[N+](C)(C)CC(=O)N2CCC(NC(=O)c3c(-c4ccnn4-c4ccc(C#N)cc4)n(C)n(-c4cccc(C(F)(F)F)c4)c3=O)CC2)no1 [Example 50, [2-(4-{[2′-(4-Cyano-phenyl)-2-methyl-5-oxo-1-(3-trifluoromethyl-phenyl)-2,5-dihydro-1H,2′H-[3,3′]bipyrazolyl-4-carbonyl]-amino}-piperidin-1-yl)-2-oxo-ethyl]-dimethyl-(5-methyl-isoxazol-3-ylmethyl)-ammonium chloride] | < 1
9 | Cn1c(-c2ccnn2-c2ccc(C#N)cc2)c(C(=O)N[C@H]2C[C@H](C(=O)NCC[N+](C)(C)C)C2)c(=O)n1-c1cccc(C(F)(F)F)c1 [Example 51, {2-[(Trans-3-{[2′-(4-cyano-phenyl)-2-methyl-5-oxo-1-(3-trifluoromethyl-phenyl)-2,5-dihydro-1H,2′H-[3,3′]bipyrazolyl-4-carbonyl]-amino}-cyclobutanecarbonyl)-amino]-ethyl}-trimethyl-ammonium benzene sulphonate] | < 1
10 | C[C@H](NC(=O)c1c(-c2ccnn2-c2ccc(C#N)cc2)n(C)n(-c2cccc(C(F)(F)F)c2)c1=O)c1ncc(CC[N+](C)(C)C)o1 [Example 52, {2-[2-((S)-1-{[2′-(4-Cyano-phenyl)-2-methyl-5-oxo-1-(3-trifluoromethyl-phenyl)-2,5-dihydro-1H,2′H-[3,3′]bipyrazolyl-4-carbonyl]-amino}-ethyl)-oxazol-5-yl]-ethyl}-trimethyl-ammonium benzene sulphonate] | 1 to 10
11 | CC(C)[C@H](NC(=O)c1c(-c2ccnn2-c2ccc(C#N)cc2)n(C)n(-c2cccc(C(F)(F)F)c2)c1=O)c1ncc(C[N+](C)(C)C)o1 [Example 53, [2-((S)-1-{[2′-(4-Cyano-phenyl)-2-methyl-5-oxo-1-(3-trifluoromethyl-phenyl)-2,5-dihydro-1H,2′H-[3,3′]bipyrazolyl-4-carbonyl]-amino}-2-methyl-propyl)-oxazol-5-ylmethyl]-trimethyl-ammonium benzene sulphonate] | < 1

More lines, now with the values ahead:

Row | IC50 [nM] | Structure (SMILES)
12 | < 1 | C[C@H](NC(=O)c1c(-c2ccnn2-c2ccc(C#N)cc2)n(C)n(-c2cccc(C(F)(F)F)c2)c1=O)C(=O)N(C)CC1CC[N+](C)(C)CC1 [Example 36, 4-{[((S)-2-{[2′-(4-Cyano-phenyl)-2-methyl-5-oxo-1-(3-trifluoromethyl-phenyl)-2,5-dihydro-1H,2′H-[3,3′]bipyrazolyl-4-carbonyl]-amino}-propionyl)-methyl-amino]-methyl}-1,1-dimethyl-piperidinium benzene sulphonate]
13 | < 1 | C[C@H](NC(=O)c1c(-c2ccnn2-c2ccc(C#N)cc2)n(C)n(-c2cccc(C(F)(F)F)c2)c1=O)c1nnc(C[N+](C)(C)C)o1 [Example 37, [5-((S)-1-{[2′-(4-Cyano-phenyl)-2-methyl-5-oxo-1-(3-trifluoromethyl-phenyl)-2,5-dihydro-1H,2′H-[3,3′]bipyrazolyl-4-carbonyl]-amino}-ethyl)-[1,3,4]oxadiazol-2-ylmethyl]-trimethyl-ammonium benzene sulphonate]
14 | < 1 | C[C@H](NC(=O)c1c(-c2ccnn2-c2ccc(C#N)cc2)n(C)n(-c2cccc(C(F)(F)F)c2)c1=O)C(=O)OCC1CC[N+](C)(C)CC1 [Example 38, 4-((S)-2-{[2′-(4-Cyano-phenyl)-2-methyl-5-oxo-1-(3-trifluoromethyl-phenyl)-2,5-dihydro-1H,2′H-[3,3′]bipyrazolyl-4-carbonyl]-amino}-propionyloxymethyl)-1,1-dimethyl-piperidinium benzene sulphonate]
15 | < 1 | Cn1c(-c2ccnn2-c2ccc(C#N)cc2)c(C(=O)NC2CCN(C(=O)C3CC[N+](C)(C)CC3)CC2)c(=O)n1-c1cccc(C(F)(F)F)c1 [Example 39, 4-(4-{[2′-(4-Cyano-phenyl)-2-methyl-5-oxo-1-(3-trifluoromethyl-phenyl)-2,5-dihydro-1H,2′H-[3,3′]bipyrazolyl-4-carbonyl]-amino}-piperidine-1-carbonyl)-1,1-dimethyl-piperidinium benzene sulphonate]
16 | < 1 | CN(CC1CC[N+](C)(C)CC1)C(=O)C(C)(C)NC(=O)c1c(-c2ccnn2-c2ccc(C#N)cc2)n(C)n(-c2cccc(C(F)(F)F)c2)c1=O [Example 40, 4-{[(2-{[2′-(4-Cyano-phenyl)-2-methyl-5-oxo-1-(3-trifluoromethyl-phenyl)-2,5-dihydro-1H,2′H-[3,3′]bipyrazolyl-4-carbonyl]-amino}-2-methyl-propionyl)-methyl-amino]-methyl}-1,1-dimethyl-piperidinium benzene sulphonate]
17 | < 1 | C[C@H](NC(=O)c1c(-c2ccnn2-c2ccc(C#N)cc2)n(C)n(-c2cccc(C(F)(F)F)c2)c1=O)C(=O)N1CCC([N+](C)(C)C)CC1 [Example 41, [1-((S)-2-{[2′-(4-Cyano-phenyl)-2-methyl-5-oxo-1-(3-trifluoromethyl-phenyl)-2,5-dihydro-1H,2′H-[3,3′]bipyrazolyl-4-carbonyl]-amino}-propionyl)-piperidin-4-yl]-trimethyl-ammonium benzene sulphonate]
18 | < 1 | Cn1c(-c2ccnn2-c2ccc(C#N)cc2)c(C(=O)N[C@H]2CC[C@H](C(=O)NCC[N+](C)(C)C)CC2)c(=O)n1-c1cccc(C(F)(F)F)c1 [Example 42, {2-[(Trans-4-{[2′-(4-cyano-phenyl)-2-methyl-5-oxo-1-(3-trifluoromethyl-phenyl)-2,5-dihydro-1H,2′H-[3,3′]bipyrazolyl-4-carbonyl]-amino}-cyclohexanecarbonyl)-amino]-ethyl}-trimethyl-ammonium benzene sulphonate]
